Test system: 556581-035-R-J1-PDC complex spheroid growth
Test: Anticancer human tumor 556581-035-R-J1-PDC patient-derived ovarian carcinoma cell line growth inhibition [Asc]
Conditions: for IC50: curve of first compound; for viability, T/C: stronger effect = lower value
Protocol: Multicellular complex tumor spheroid response to apoptosis pathway targeting inhibitors Alrizomadlin, Pelcitoclax, and Dasminapant in combination with a variety of drugs and investigational agents in selected tumor cell lines
The MDM2 inhibitor alrizomadlin, the Bcl-2/Bcl-xL inhibitor pelcitoclax, and the IAPs inhibitor dasminapant were evaluated both individually and in combination with standard of care and investigational anticancer small molecules within a complex spheroid model of solid tumors. . Complex spheroids include a stromal component modeled by human endothelial cells (HUVEC) and fibroblasts modeled by human mesenchymal stem cells (MSCs). The concentration ranges selected for each drug and investigational agent were based upon clinically achievable concentrations if the clinical Cmax of the agent was known.
Compounds. The drugs and investigational agents: alrizomadlin (APG-115; NSC831270), pelcitoclax (APG-1252; NSC835773), dasminapant (APG-1387;NSC834197), TAK-243 (NSC785004), copanlisib (NSC809693), olaparib (NSC753686), talazoparib (NSC767125), cobimetinib (NSC 768068), eltanexor (KPT-8602, NSC 794443), abemaciclib (NSC 768073), sotorasib (NSC818433), adagrasib (NSC 831453), MRTX-1133 (NSC 836407), Iadademestat (ORY1001, NSC 806812), and RMC-4630 (NSC839698), were obtained from the NCI Developmental Therapeutics Program Chemical Repository. The FDA-approved anticancer drug set is available from the Developmental Therapeutics Program at https://dtp.cancer.gov/organization/dscb/obtaining/available plates.htm. […] The stock solutions were prepared in dimethyl sulfoxide (DMSO, Sigma-Aldrich, St. Louis, MO, cat. D2650) at 800-fold the tested concentration and stored at -70 degrees C prior to their use. All drugs and investigational agents were tested over a range starting from a high concentration at or near the clinical Cmax and decreasing in half-log increments. If the clinical Cmax for an agent had not been determined, the highest concentration tested was 10 microM.
The patient-derived cancer (PDC) cell lines include five colon adenocarcinomas: 186277-243-T-J2-PDC, 616215-338-R-J1-PDC, 439559-082-T-J2-PDC, 463943-066-T-J2-PDC, and 519858-162-T-J1-PDC; three pancreatic carcinomas: 323965-272-R-J2-PDC, 521955-158-R6-J3-PDC, and 521955-158-R2-J5-PDC; two uterine sarcomas: 327498-152-R-J2-PDC and 993429-296-R-J1-PDC; two rhabdomyosarcomas: 755483-174-R-J1-PDC and 772245-204-R-J1-PDC; two soft tissue sarcomas: 126254-015-R-J1-PDC and 494315-158-R-J1-PDC; two malignant fibrous histiocytomas: 317291-083-R-J1-PDC and 596521-263-R-J1-PDC; two breast carcinomas: 171881-019-R-J1-PDC and 885512-296-R-J2-PDC; and one ovarian carcinoma: 6556581-035-R-J-PDC were obtained from the NCI PDMR, (https://pdmr.cancer.gov). The established cell lines HSSY-2 synovial sarcoma (RRID:CVCL 8719), SYO-1 synovial sarcoma (RRID:CVCL_7146), MPNST malignant peripheral neural sheath tumor were obtained from the Sloan Kettering Institute. The following established cell lines were purchased from the American Type Culture Collection (ATCC, Manassas, VA), Sor the received from the NCI repository:, PANC-1 pancreatic carcinoma (CRL-1469, RRID:CVCL_0480), OVCAR-5 ovarian carcinoma (RRID:CVCL_1628), OVCAR-8 ovarian carcinoma (RRID:CVCL_1629), , MCF-7 breast carcinoma (CRL-12584, RRID:CVCL_0031), MDA-MB-231 breast carcinoma (CRL-12532, RRID:CVCL_0062), NCI-H1876 small cell lung carcinoma (CRL-5902, RRID:CVCL_1503), NCI-H510A small cell lung carcinoma (HTB-184, RRID:CVCL_1565), NCI-H1417 (CRL-5869, RRID:CVCL_1469), and NCI-H196 small cell lung carcinoma (CRL-5823, RRID:CVCL_1509). Dr. Peter Houghton (Greehey Children's Cancer Research Institute, University of Texas Health Science Center, San Antonio, TX) provided Rh-18 rhabdomyosarcoma (RRID:CVCL_1659). Pooled donor human umbilical vein endothelial cells (HUVEC, Lonza, cat. CC-2519) and human mesenchymal stem cells (hMSC, Lonza, cat. PT-2501) were purchased from Lonza (Walkersville, MD).
Cell Culture. […]
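Further: spheroids exposed to agents for 7 days before viability read.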

NC1CCC(NC2CC2c2ccccc2)CC1 (stereo not given) + Cc1c(S(C)(=O)=O)c(-c2cc(F)cc(N3CCN(c4ccc(NS(=O)(=O)c5ccc(NC(CCN6CCC(C(=O)OCCCP(=O)(O)O)CC6)CSc6ccccc6)c(S(=O)(=O)C(F)(F)F)c5)cc4)CC3)c2)c(-c2ccc(Cl)cc2)n1C(C)C
IC50 (second compound 0.1 µM): > 100 nM
IC50 (second compound 0.316 µM): > 100 nM
IC50 (second compound 1 µM): > 100 nM
IC50 (second compound 3.16 µM): > 100 nM
IC50 (second compound 10 µM): > 100 nM
viability, T/C (second compound 0.1 µM, first compound 0.000316 µM): 74.9%
viability, T/C (second compound 0.1 µM, first compound 0.001 µM): 90.3%
viability, T/C (second compound 0.1 µM, first compound 0.00316 µM): 64.5%
viability, T/C (second compound 0.1 µM, first compound 0.01 µM): 77.2%
viability, T/C (second compound 0.1 µM, first compound 0.0316 µM): 75.6%
viability, T/C (second compound 0.1 µM, first compound 0.1 µM): 76.9%
viability, T/C (second compound 0.316 µM, first compound 0.000316 µM): 74%
viability, T/C (second compound 0.316 µM, first compound 0.001 µM): 83.3%
viability, T/C (second compound 0.316 µM, first compound 0.00316 µM): 67.2%
viability, T/C (second compound 0.316 µM, first compound 0.01 µM): 82.5%
viability, T/C (second compound 0.316 µM, first compound 0.0316 µM): 80.5%
viability, T/C (second compound 0.316 µM, first compound 0.1 µM): 75.5%
viability, T/C (second compound 1 µM, first compound 0.000316 µM): 62.9%
viability, T/C (second compound 1 µM, first compound 0.001 µM): 64%
viability, T/C (second compound 1 µM, first compound 0.00316 µM): 67.8%
viability, T/C (second compound 1 µM, first compound 0.01 µM): 64.8%
viability, T/C (second compound 1 µM, first compound 0.0316 µM): 62.4%
viability, T/C (second compound 1 µM, first compound 0.1 µM): 56.4%
viability, T/C (second compound 3.16 µM, first compound 0.000316 µM): 58.8%
viability, T/C (second compound 3.16 µM, first compound 0.001 µM): 73.7%
viability, T/C (second compound 3.16 µM, first compound 0.00316 µM): 64.5%
viability, T/C (second compound 3.16 µM, first compound 0.01 µM): 54.4%
viability, T/C (second compound 3.16 µM, first compound 0.0316 µM): 71.9%
viability, T/C (second compound 3.16 µM, first compound 0.1 µM): 58.2%
viability, T/C (second compound 10 µM, first compound 0.000316 µM): 61.5%
viability, T/C (second compound 10 µM, first compound 0.001 µM): 57.2%
viability, T/C (second compound 10 µM, first compound 0.00316 µM): 56.8%
viability, T/C (second compound 10 µM, first compound 0.01 µM): 50.1%
viability, T/C (second compound 10 µM, first compound 0.0316 µM): 69.5%
viability, T/C (second compound 10 µM, first compound 0.1 µM): 63.4%

— PubChem BioAssay AID1963450 (Molecular Pharmacology Branch, DTP, NCI, 2024)
